Source: publication PMC8364686, “Safety, tolerability, pharmacokinetics and pharmacodynamics of single oral doses of BI 187004, an inhibitor of 11beta-hydroxysteroid dehydrogenase-1, in healthy male volunteers with overweight or obesity” (Clinical Diabetes and Endocrinology, 2021)

Assay: Plasma pharmacokinetics of BI 187004 after single oral doses (LC–MS/MS)
Settings: male, human, plasma, po
[1] = 10 mg, Plasma concentration Mean, 10 mg single oral
[2] = 10 mg, Plasma concentration Median, 10 mg single oral
[3] = 10 mg, Plasma concentration gMean, 10 mg single oral

Protocol: This was a randomized, double-blind, placebo-controlled, single rising dose study conducted at a single center in Germany. […] Follow-up on an ambulatory basis was performed between 11 and 15 days after study drug administration. […] At the time of use the oral solution for dosing was prepared using the PFOS and a co-supplied aqueous solvent containing HP-beta-cyclodextrin 100 mg/mL. The lowest dose level solutions were prepared by further dilution of the lower concentration solution with additional solvent.
For each accepted run, the acceptance criteria for the calibration standards and quality controls were met.

N#Cc1ccc2c(c1)[C@H]1CCCN(C(=O)c3ccc4[nH]cnc4c3)[C@H]1C2 [BI 187004]
concentration at 24 h [1]: 76.9 nM | concentration at 36 h [1]: 30.2 nM | concentration at 48 h [1]: 22.8 nM | concentration at 72 h [1]: 10.7 nM | concentration at 96 h [1]: 5.72 nM | concentration at 0.5 h (10 mg, Plasma concentration Median, 10 mg single oral, 0.5 h): 363 nM | concentration at 1 h (10 mg, Plasma concentration Median, 10 mg single oral, 1 h): 413 nM | concentration at 1.5 h (10 mg, Plasma concentration Median, 10 mg single oral, 1.5 h): 435 nM | concentration at 2 h (10 mg, Plasma concentration Median, 10 mg single oral, 2 h): 396 nM | concentration at 2.5 h (10 mg, Plasma concentration Median, 10 mg single oral, 2.5 h): 381 nM | concentration at 3 h (10 mg, Plasma concentration Median, 10 mg single oral, 3 h): 334 nM | concentration at 4 h (10 mg, Plasma concentration Median, 10 mg single oral, 4 h): 368 nM | concentration at 5 h (10 mg, Plasma concentration Median, 10 mg single oral, 5 h): 272 nM | concentration at 6 h (10 mg, Plasma concentration Median, 10 mg single oral, 6 h): 243 nM | concentration at 8 h (10 mg, Plasma concentration Median, 10 mg single oral, 8 h): 217 nM | concentration at 10 h [2]: 179 nM | concentration at 12 h [2]: 147 nM | concentration at 24 h [2]: 80 nM | concentration at 36 h [2]: 29.6 nM | concentration at 48 h [2]: 22.4 nM | concentration at 72 h [2]: 9.36 nM | concentration at 96 h [2]: 5.09 nM | concentration at 0.5 h (10 mg, Plasma concentration gMean, 10 mg single oral, 0.5 h): 279 nM | concentration at 1 h (10 mg, Plasma concentration gMean, 10 mg single oral, 1 h): 426 nM | concentration at 1.5 h (10 mg, Plasma concentration gMean, 10 mg single oral, 1.5 h): 435 nM | concentration at 2 h (10 mg, Plasma concentration gMean, 10 mg single oral, 2 h): 380 nM | concentration at 2.5 h (10 mg, Plasma concentration gMean, 10 mg single oral, 2.5 h): 372 nM | concentration at 3 h (10 mg, Plasma concentration gMean, 10 mg single oral, 3 h): 336 nM | concentration at 4 h (10 mg, Plasma concentration gMean, 10 mg single oral, 4 h): 340 nM | concentration at 5 h (10 mg, Plasma concentration gMean, 10 mg single oral, 5 h): 270 nM | concentration at 6 h (10 mg, Plasma concentration gMean, 10 mg single oral, 6 h): 254 nM | concentration at 8 h (10 mg, Plasma concentration gMean, 10 mg single oral, 8 h): 208 nM | concentration at 10 h [3]: 174 nM | concentration at 12 h [3]: 140 nM | concentration at 24 h [3]: 71.3 nM | concentration at 36 h [3]: 26.3 nM | concentration at 48 h [3]: 20.5 nM | concentration at 72 h [3]: 10.2 nM | concentration at 96 h [3]: 5.48 nM | concentration at 1 h (10 mg, Plasma concentration, individual subjects, 10 mg single oral, planned time 1 h): 519 nM | concentration at 1.5 h (10 mg, Plasma concentration, individual subjects, 10 mg single oral, planned time 1.5 h): 537 nM | concentration at 2 h (10 mg, Plasma concentration, individual subjects, 10 mg single oral, planned time 2 h): 437 nM | concentration at 2.5 h (10 mg, Plasma concentration, individual subjects, 10 mg single oral, planned time 2.5 h): 442 nM | concentration at 3 h (10 mg, Plasma concentration, individual subjects, 10 mg single oral, planned time 3 h): 405 nM | concentration at 4 h (10 mg, Plasma concentration, individual subjects, 10 mg single oral, planned time 4 h): 412 nM | concentration at 5 h (10 mg, Plasma concentration, individual subjects, 10 mg single oral, planned time 5 h): 352 nM | concentration at 6 h (10 mg, Plasma concentration, individual subjects, 10 mg single oral, planned time 6 h): 353 nM | concentration at 8 h (10 mg, Plasma concentration, individual subjects, 10 mg single oral, planned time 8 h): 241 nM | AUC(0-inf) (20 mg): 12.4 µM·h | AUC(0-t) (20 mg): 9.45 µM·h | Cmax (20 mg): 1030 nM | Tmax (20 mg): 1.38 h | Vd/F (20 mg): 144 L | half-life (20 mg): 21.2 h | concentration at 0.5 h (20 mg, BI 187004 plasma concentrations, 20 mg single oral, planned time 0.5 h, Max): 1050 nM | concentration at 0.5 h (20 mg, BI 187004 plasma concentrations, 20 mg single oral, planned time 0.5 h, Mean): 431 nM | concentration at 0.5 h (20 mg, BI 187004 plasma concentrations, 20 mg single oral, planned time 0.5 h, Median): 215 nM | concentration at 0.5 h (20 mg, BI 187004 plasma concentrations, 20 mg single oral, planned time 0.5 h, Min): 34.3 nM | concentration at 0.5 h (20 mg, BI 187004 plasma concentrations, 20 mg single oral, planned time 0.5 h, gMean): 211 nM | concentration at 1 h (20 mg, BI 187004 plasma concentrations, 20 mg single oral, planned time 1 h, Max): 1130 nM | concentration at 1 h (20 mg, BI 187004 plasma concentrations, 20 mg single oral, planned time 1 h, Mean): 885 nM | concentration at 1 h (20 mg, BI 187004 plasma concentrations, 20 mg single oral, planned time 1 h, Median): 1030 nM | concentration at 1 h (20 mg, BI 187004 plasma concentrations, 20 mg single oral, planned time 1 h, Min): 236 nM | concentration at 1 h (20 mg, BI 187004 plasma concentrations, 20 mg single oral, planned time 1 h, gMean): 788 nM | concentration at 1.5 h (20 mg, BI 187004 plasma concentrations, 20 mg single oral, planned time 1.5 h, Max): 1210 nM | concentration at 1.5 h (20 mg, BI 187004 plasma concentrations, 20 mg single oral, planned time 1.5 h, Mean): 969 nM | concentration at 1.5 h (20 mg, BI 187004 plasma concentrations, 20 mg single oral, planned time 1.5 h, Median): 944 nM | concentration at 1.5 h (20 mg, BI 187004 plasma concentrations, 20 mg single oral, planned time 1.5 h, Min): 824 nM | concentration at 1.5 h (20 mg, BI 187004 plasma concentrations, 20 mg single oral, planned time 1.5 h, gMean): 960 nM | concentration at 1.5 h (20 mg, BI 187004 plasma concentrations, 20 mg single oral, planned time 1.5 h, individual subjects): 1210 nM | concentration at 2 h (20 mg, BI 187004 plasma concentrations, 20 mg single oral, planned time 2 h, Max): 1100 nM | concentration at 2 h (20 mg, BI 187004 plasma concentrations, 20 mg single oral, planned time 2 h, Mean): 877 nM | concentration at 2 h (20 mg, BI 187004 plasma concentrations, 20 mg single oral, planned time 2 h, Median): 890 nM | concentration at 2 h (20 mg, BI 187004 plasma concentrations, 20 mg single oral, planned time 2 h, Min): 630 nM | concentration at 2 h (20 mg, BI 187004 plasma concentrations, 20 mg single oral, planned time 2 h, gMean): 863 nM | concentration at 2 h (20 mg, BI 187004 plasma concentrations, 20 mg single oral, planned time 2 h, individual subjects): 1100 nM | concentration at 2.5 h (20 mg, BI 187004 plasma concentrations, 20 mg single oral, planned time 2.5 h, Max): 1060 nM | concentration at 2.5 h (20 mg, BI 187004 plasma concentrations, 20 mg single oral, planned time 2.5 h, Mean): 860 nM | concentration at 2.5 h (20 mg, BI 187004 plasma concentrations, 20 mg single oral, planned time 2.5 h, Median): 866 nM | concentration at 2.5 h (20 mg, BI 187004 plasma concentrations, 20 mg single oral, planned time 2.5 h, Min): 619 nM | concentration at 2.5 h (20 mg, BI 187004 plasma concentrations, 20 mg single oral, planned time 2.5 h, gMean): 843 nM | concentration at 2.5 h (20 mg, BI 187004 plasma concentrations, 20 mg single oral, planned time 2.5 h, individual subjects): 1060 nM | concentration at 3 h (20 mg, BI 187004 plasma concentrations, 20 mg single oral, planned time 3 h, Max): 945 nM | concentration at 3 h (20 mg, BI 187004 plasma concentrations, 20 mg single oral, planned time 3 h, Mean): 760 nM | concentration at 3 h (20 mg, BI 187004 plasma concentrations, 20 mg single oral, planned time 3 h, Median): 770 nM | concentration at 3 h (20 mg, BI 187004 plasma concentrations, 20 mg single oral, planned time 3 h, Min): 586 nM | concentration at 3 h (20 mg, BI 187004 plasma concentrations, 20 mg single oral, planned time 3 h, gMean): 746 nM | concentration at 3 h (20 mg, BI 187004 plasma concentrations, 20 mg single oral, planned time 3 h, individual subjects): 945 nM | concentration at 4 h (20 mg, BI 187004 plasma concentrations, 20 mg single oral, planned time 4 h, Max): 896 nM | concentration at 4 h (20 mg, BI 187004 plasma concentrations, 20 mg single oral, planned time 4 h, Mean): 724 nM | concentration at 4 h (20 mg, BI 187004 plasma concentrations, 20 mg single oral, planned time 4 h, Median): 748 nM | concentration at 4 h (20 mg, BI 187004 plasma concentrations, 20 mg single oral, planned time 4 h, Min): 531 nM | concentration at 4 h (20 mg, BI 187004 plasma concentrations, 20 mg single oral, planned time 4 h, gMean): 707 nM | concentration at 4 h (20 mg, BI 187004 plasma concentrations, 20 mg single oral, planned time 4 h, individual subjects): 896 nM | concentration at 5 h (20 mg, BI 187004 plasma concentrations, 20 mg single oral, planned time 5 h, Max): 883 nM | concentration at 5 h (20 mg, BI 187004 plasma concentrations, 20 mg single oral, planned time 5 h, Mean): 653 nM | concentration at 5 h (20 mg, BI 187004 plasma concentrations, 20 mg single oral, planned time 5 h, Median): 644 nM | concentration at 5 h (20 mg, BI 187004 plasma concentrations, 20 mg single oral, planned time 5 h, Min): 463 nM | concentration at 5 h (20 mg, BI 187004 plasma concentrations, 20 mg single oral, planned time 5 h, gMean): 634 nM | concentration at 5 h (20 mg, BI 187004 plasma concentrations, 20 mg single oral, planned time 5 h, individual subjects): 773 nM | concentration at 6 h (20 mg, BI 187004 plasma concentrations, 20 mg single oral, planned time 6 h, Max): 847 nM | concentration at 6 h (20 mg, BI 187004 plasma concentrations, 20 mg single oral, planned time 6 h, Mean): 566 nM | concentration at 6 h (20 mg, BI 187004 plasma concentrations, 20 mg single oral, planned time 6 h, Median): 529 nM | concentration at 6 h (20 mg, BI 187004 plasma concentrations, 20 mg single oral, planned time 6 h, Min): 420 nM
